Consider 14 molecules from patent publication US5047534A (Merrell Dow Pharmaceuticals Inc., priority 1990, dated 1991).

The target of one assay is T1, adenosine A-2 receptors (Rattus norvegicus, UniProt P30543).
T1 construct: tissue Charles River (animals); host or cells: brain striatum membranes, young male rats (C-D strain)
Kind of assay: Test for affinity for brain adenosine A-2 receptors ([3H]NECA displacement, striatal membranes). Conditions: read-out: A2 Ki. It is filed as binding. Here is the method: Membranes for ligand binding are isolated from rat brain striatum. The tissue is homogenized in 20 vol icecold 50 mM Tris-HCl buffer (pH 7.7) using a polytron (setting for 6 to 20 seconds). The homogenate is centrifuged at 50,000 x g for 10 minutes at 4° C. The pellet is again homogenized in a polytron in 20 vol of buffer, and centrifuged as before. The pellet is finally resuspended in 40 vol of 50mM Tris-HCl (pH 7.7) per gram of original wet weight of tissue.
Incubations are carried out at 25° C. for 60 minutes. Each tube is filtered through GF/B glass fiber filters using a vacuum. The filters are rinsed two times with 5 ml of the ice-cold buffer. […] The filters are counted by liquid scintillation spectrometry.
Specific binding of [3H]NECA is measured as the excess over blanks run in the presence of 100 μM 2-chloroadenosine. Total membrane-bound radioactivity is about 2.5% of that added to the test tubes. […] Specific binding to membranes is about 50% of the total bound.

For assay [1], the target named is T2, Adenosine A-1 receptor (Rattus norvegicus, UniProt P25099).
T2 sequence (P25099 1-326): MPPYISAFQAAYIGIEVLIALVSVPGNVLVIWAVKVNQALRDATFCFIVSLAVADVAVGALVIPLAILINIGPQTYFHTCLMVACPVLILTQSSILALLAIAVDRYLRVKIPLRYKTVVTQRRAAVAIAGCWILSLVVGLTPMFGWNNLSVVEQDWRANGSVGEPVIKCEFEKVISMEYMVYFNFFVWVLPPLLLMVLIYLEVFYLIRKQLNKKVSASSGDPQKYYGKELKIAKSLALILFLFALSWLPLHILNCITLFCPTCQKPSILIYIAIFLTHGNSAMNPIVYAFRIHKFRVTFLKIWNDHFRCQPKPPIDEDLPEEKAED

Assay [2] addresses T2, Adenosine A-1 receptor. Put plainly: Test for affinity for brain adenosine A-1 receptor binding sites ([3H]cyclohexyladenosine displacement, whole brain membranes). Conditions: ratio of A2 Ki to A1 Ki.
The target of assay [3] is T2, Adenosine A-1 receptor. Kind of assay: biochemical.
The next assay addresses A-1 receptors. Conditions: read-out: Ki at the A-1 receptors in brain membranes; cited from earlier work.

Where two headings read alike, the source gives them in different places.

T1 sequence (P30543 whole entry): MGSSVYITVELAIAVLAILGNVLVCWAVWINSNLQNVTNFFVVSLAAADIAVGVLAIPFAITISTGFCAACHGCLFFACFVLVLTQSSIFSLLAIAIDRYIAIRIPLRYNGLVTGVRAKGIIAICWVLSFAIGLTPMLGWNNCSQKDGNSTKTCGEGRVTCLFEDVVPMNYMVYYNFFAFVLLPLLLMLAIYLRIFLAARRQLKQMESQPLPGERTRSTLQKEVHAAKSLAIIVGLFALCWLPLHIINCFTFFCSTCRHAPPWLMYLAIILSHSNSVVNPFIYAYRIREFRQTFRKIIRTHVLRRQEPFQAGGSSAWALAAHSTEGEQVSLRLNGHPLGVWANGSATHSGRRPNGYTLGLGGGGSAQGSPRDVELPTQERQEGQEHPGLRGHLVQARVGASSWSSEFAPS

With `CCCn1c(=O)c2nc(C(CC)Cc3ccccc3)[nH]c2n(CCC)c1=O` (stereo not drawn) [3,7-dihydro-8-[1-(phenylmethyl)propyl]-1,3-dipropyl-1H-purine-2,6-dione], the Ki (usually the equilibrium dissociation constant of an inhibitor or competing ligand from its target) on adenosine A-2 receptors came to 71700 nM.
For “3,7-Dihydro-8-(1-phenylethyl-2-phenylethyl)-1,3-dipropyl-1H-purine-2,6-dione”, the Ki worked out at 2600 nM on adenosine A-2 receptors and 71 nM on Adenosine A-1 receptor [1]. In addition, at Adenosine A-1 receptor [2], the A2/A1 is reported as 37.
As to `CCCn1c(=O)c2[nH]c(C(CC)c3ccccc3)nc2n(CCC)c1=O` (racemic) [3,7-dihydro-8-[(±)-phenylpropyl]-1,3-dipropyl-1H-purine-2,6-dione], the Ki turned out to be 1100 nM at adenosine A-2 receptors and 5.1 nM at Adenosine A-1 receptor [3]. The A2/A1 on Adenosine A-1 receptor [2] was 216.
As for `CCCn1c(=O)c2[nH]c([C@@H](CC)c3ccccc3)nc2n(CCC)c1=O` [3,7-Dihydro-8-[(S)-phenylpropyl]-1,3-dipropyl-1H-purine-2,6-dione], the Ki at adenosine A-2 receptors stood at 1560 nM; on Adenosine A-1 receptor [3], 52 nM. Moreover, at Adenosine A-1 receptor [2], the A2/A1 is 30.
Regarding `CCCn1c(=O)c2[nH]c([C@H](C)Cc3ccccc3)nc2n(CCC)c1=O` [3,7-dihydro-8-[(1R)-1-methyl-2-phenylethyl]-1,3-dipropyl-1H-purine-2,6-dione], the Ki on adenosine A-2 receptors was 157 nM.
For `CCCn1c(=O)c2[nH]c(-c3ccc(OCC(=O)NCCN)cc3)nc2n(CCC)c1=O` [XAC], at A-1 receptors, the Ki was 1.2 ± 0.5 nM.
In the case of `CCCn1c(=O)c2nc(C(C)c3ccccc3)[nH]c2n(CCC)c1=O` (stereo not drawn) [3,7-dihydro-8-(1-phenylethyl)-1,3-dipropyl-1H-purine-2,6-dione], the Ki at adenosine A-2 receptors was determined as 1600 nM.
As for `CCCn1c(=O)c2[nH]c([C@H](CC)c3ccccc3)nc2n(CCC)c1=O` [3,7-dihydro-8-[(R)-phenylpropyl]-1,3-dipropyl-1H-purine-2,6-dione], the Ki turned out to be 647 nM on adenosine A-2 receptors and 1.6 nM at Adenosine A-1 receptor [3]. Besides, the A2/A1 on Adenosine A-1 receptor [2] is listed as 404.
For `CCCn1c(=O)c2[nH]c(C3Cc4ccccc4C3)nc2n(CCC)c1=O` [3,7-dihydro-8-(2-indanyl)-1,3-dipropyl-1H-purine-2,6-dione], at adenosine A-2 receptors, the Ki was 7100 nM.
Same read-out and setting: next, `CCCC(Cc1ccccc1)c1nc2c(=O)n(CCC)c(=O)n(CCC)c2[nH]1` (racemic) [3,7-Dihydro-8-[1-(phenylmethyl)butyl]-1,3-dipropyl-1H-purine-2,6-dione]: 608 nM; `CCCn1c(=O)c2nc([C@@H](C)Cc3ccccc3)[nH]c2n(CCC)c1=O` [3,7-dihydro-8-[(1S)-1-methyl-2-phenylethyl]-1,3-dipropyl-1H-purine-2,6-dione]: 848 nM; `CCCn1c(=O)c2nc(C(CO)Cc3ccccc3)[nH]c2n(CCC)c1=O` (stereo not drawn) [3,7-dihydro-8-[1-(hydroxymethyl)-2-phenylethyl]-1,3-dipropyl-1H-purine-2,6-dione]: 3900 nM.
As to `CCCn1c(=O)c2[nH]c(C(C)Cc3ccccc3)nc2n(CCC)c1=O` (racemic) [3,7-Dihydro-8-[(±)-1-methyl-2-phenylethyl]-1,3-dipropyl-1H-purine-2,6-dione], the Ki at adenosine A-2 receptors was 644 nM.
`C=CCn1c(=O)c2[nH]c(C(C)c3ccccc3)nc2n(CC=C)c1=O` (stereo not drawn) [3,7-dihydro-8-(1-phenylethyl)-1,3-di-2-propenyl-1H-purine-2,6-dione]: the Ki on adenosine A-2 receptors was found to be 2400 nM; on Adenosine A-1 receptor [3], 20 nM. Further, the A2/A1 on Adenosine A-1 receptor [2] is 119.
